For data set [1], the system named is MOG35-55–antigen specific T-cells. The data set can be described thus: T-bet and Gata3 expression detected by FACS. The class given is cell-based, mouse (C57Bl/6J). The settings on record: peptide at 10μM, APC activation, n = 3. Here is the method:
(A-B) MOG35-55–antigen specific T-cells were activated by irradiated MOG35-55 presenting APCs, in the presence of the HTLV FP at 10μM. Total RNA was isolated 24 hours following activation and mRNA expression levels were determined by qRT-PCR. The values of each gene were normalized to Rpl13a as a housekeeping control. The HTLV FP reduces TBX21 (T-bet) mRNA expression and elevates GATA3 mRNA expression. The data is presented as arbitrary units. n≥3. (C-H) MOG35-55–antigen specific T-cells were activated by irradiated MOG35-55 presenting APCs, in the presence of either HTLV or HIV FP at 10μM. Samples were fixed in 4% PFA and stained with anti T-bet-APC and anti Gata3-FITC antibodies (C-D) 24, (E-F) 48 and (G-H) 72 hours following activation. Each time point is represented as cell count vs. APC or FITC fluorescence histogram. Analysis was performed using LSR-II flow cytometer (BD) and FlowJo cell analysis software (FlowJo, LLC). The HTLV FP reduces T-bet expression and elevates Gata3 expression. n = 3. One-way ANOVA was used for statistical analysis. ns, not significant; *P<0.05;** P<0.01.
Antigen-specific T-cells were plated onto round 12-well plates (10^6 cells/ well) and activated with 5x10^5 irradiated (25 gray) APC and 5μg/ml of MOG p35-55 in the presence or absence of relevant peptides. Cells were washed with PBS, blocked (5% Donkey serum, 2% BSA and 0.1% Triton in PBS) and fixed with 4% Paraformaldehyde (PFA) 24 hour following activation. Cells were then stained with Gata3-FITC and T-bet-APC fluorochrome-labeled monoclonal mouse antibodies (purchased from Miltenyi Biotec) according to Miltenyi Biotec protocols. Samples were then collected using LSR-II flow cytometer and analyzed with FlowJo cell analysis software.
On the technique in general: A flow cytometer gives signals particle by particle.

Data set [2] has the same test system. Kind of data set: In-vitro T-cell proliferative response (H3-thymidine incorporation). Particulars: peptide at 10μM; for inhibition of T-cell proliferation, activation by PMA and Ionomycin: 50ng/mL PMA with 1μM ionomycin; for inhibition of T-cell proliferation, activation by antibodies against CD3 and CD28: CD3 and CD28 antibodies 2μg/ml; for inhibition of T-cell proliferation, activation by MOG35-55 presenting APCs: irradiated MOG35-55 presenting APCs, mean inhibition of proliferation. Type of data set: cell-based, mouse (C57Bl/6J). A general note: Dividing cells build labelled thymidine or BrdU into new DNA.

Data set [3] is described as follows: Circular dichroism spectroscopy with CDNN secondary structure analysis. Type of data set: physicochemical. Particulars: 25μM peptide in 5mM HEPES buffer with 1% LPC; for Antiparallel β-Sheet / Parallel β-Sheet / Random-coil / α-Helix / β-turn: CD 190–260 nm, CDNN, relative amount of structure out of 100%; for secondary structure in a membrane mimetic environment: CD. As to the method: Fig 6 Detection of the immune modulatory region within the HTLV FP. (A) Sequences of shorter peptides derived from the full length HTLV FP. (B) MOG35-55–antigen specific T-cells were activated by APCs in the presence of HTLV FP derived peptides at 10μM and proliferative responses were assessed as described above. […] The data is presented as mean inhibition of proliferation. n = 12. (C) MOG35-55–antigen specific T cells were activated by either (i) irradiated MOG35-55 presenting APCs (black), (ii) antibodies against CD3 and CD28 (white), or (iii) PMA and Ionomycin (gray) in the presence of HTLV FP5-13 and HIV FP5-13 at 10μM. Proliferative responses were assessed as described above. The HTLV FP inhibits T-cell proliferation induced either through the TCR or downstream from the TCR with equal potencies. The data is presented as mean inhibition of proliferation. n = 12. […] CD spectra were measured at 25μM in 5mM HEPES buffer containing 1% lyso-phosphatidylcholine (LPC). […] (E) MOG35-55–antigen specific T-cells were activated by APCs in the presence of HTLV FP5-13 D/L enantiomers at 10μM and proliferative responses were assessed as described above. Both HTLV FP5-13 enantiomers inhibit T-cells proliferation with equal potencies. The data is presented as mean inhibition of proliferation. n = 12. One-way ANOVA was used for statistical analysis. *P<0.05;**P<0.01;***P<0.001.
(Circular dichroism is widely used to follow secondary structure.)

The text below walks through data of PMC5955599, “The HTLV-1 gp21 fusion peptide inhibits antigen specific T-cell activation in-vitro and in mice” (PLoS Pathogens, 2018).

Entries after “also recorded” stand apart in the source; their conditions may differ.

“AVGIGALFLGFLGAAGSTMGARSMTLTVQARQL [HIV FP, HIV-1 gp41 fusion peptide, HXB2 isolate, reference compound]”: in data set [1] (24 hours following activation), the “Gata3 expression (protein), 24 hours” value is “had no effect on Gata3 expression” and the “T-bet expression (protein), 24 hours” value was “had no effect on T-bet expression”. In addition, in data set [1] (48 hours following activation), the “Gata3 expression (protein), 48 hours” value was “had no effect on Gata3 expression” and the “T-bet expression (protein), 48 hours” value is “had no effect on T-bet expression”. The “Gata3 expression (protein), 72 hours” value in data set [1] (72 hours following activation) is “had no effect on Gata3 expression”. Besides, in data set [2] (n = 12), the “inhibition of T-cell proliferation, activation by PMA and Ionomycin” value (from here on “inhibition … by PMA and Ionomycin”) is “decreased significantly when activation was downstream of TCRα and β”; the “inhibition of T-cell proliferation, activation by antibodies against CD3 and CD28” value (from here on “inhibition … against CD3 and CD28”) is “decreased significantly when activation was downstream of TCRα and β”; the “inhibition of T-cell proliferation, activation by MOG35-55 presenting APCs” value (from here on “inhibition … by MOG35-55 presenting APCs”) was “inhibits T-cell proliferation with the same potency as the HIV FP”.

As for “AVGMVIFLLVLAIMAMTASVTAAATLVKQHATA [JDV FP, Jembrana disease virus fusion peptide, Tabanan/87 isolate]”, the “inhibition … by MOG35-55 presenting APCs” value in data set [2] (n = 12) is given as “showed no inhibitory activity”.

“AVWLVSALA [HTLV FP5-13, segment 5-13 of the HTLV FP]”: in data set [2] (n = 12), the “inhibition … by PMA and Ionomycin” value is listed as “inhibited all three levels of activation”; the “inhibition … against CD3 and CD28” value is listed as “inhibited all three levels of activation”. Moreover, the “inhibition … by MOG35-55 presenting APCs” value in data set [2] (n = 12, 10 µM) is “inhibited all three levels of activation; also recorded: inhibit T-cell proliferation with higher potency than HTLV FP9-22 and HTLV FP14-22; also recorded: inhibited T-cell proliferation with the same potency”. Moreover, in data set [3], the “Antiparallel β-Sheet” value is reported as 6.7%, the “Parallel β-Sheet” value stood at 5.2%, the Random-coil came out at 17.3% and the α-Helix is 54%. In addition, in data set [3], the β-turn came to 16.8% and the “secondary structure in a membrane mimetic environment” value (“secondary structure” below) is recorded as “exhibited an α-helical structure”.

As to “GALFLGFLG [HIV FP5-13, reference compound]”, in data set [2] (n = 12), the “inhibition … by PMA and Ionomycin” value was “significantly diminished when T-cells were activated using CD3 and CD28 antibodies or PMA and Ionomycin”; the “inhibition … against CD3 and CD28” value was “significantly diminished when T-cells were activated using CD3 and CD28 antibodies or PMA and Ionomycin”.

As for “MGAGVAGGI [HTLV FP14-22, segment 14-22 of the HTLV FP]”, the “inhibition … by MOG35-55 presenting APCs” value in data set [2] (n = 12) is “higher potency than HTLV FP9-22 and HTLV FP14-22”. In data set [3], the “Antiparallel β-Sheet” value is recorded as 27.7%, the “Parallel β-Sheet” value is 11.7%, the Random-coil is 32.5% and the α-Helix was determined as 11.2%. Besides, in data set [3], the β-turn is 17.1% and the “secondary structure” value is “found to be random coils”.

On to “VAALTLGLALSVGLTGINVAVSALSHQRLTSLI [BLV FP, bovine leukemia virus fusion peptide, Japanese isolate of BLV-1]”, for which, in data set [2] (n = 12), the “inhibition … by MOG35-55 presenting APCs” value was “significantly stronger than the BLV FP”.

In the case of “VSALAMGAGVAGGI [HTLV FP9-22, segment 9-22 of the HTLV FP]”, in data set [2] (n = 12), the “inhibition … by MOG35-55 presenting APCs” value is “higher potency than HTLV FP9-22 and HTLV FP14-22”. Also, in data set [3], the “Antiparallel β-Sheet” value worked out at 30.4%, the “Parallel β-Sheet” value is 11.7%, the Random-coil turned out to be 32.6% and the α-Helix was determined as 8.5%. Further, in data set [3], the β-turn is 16.8% and the “secondary structure” value is on record as “found to be random coils”.
